{"source": "paper PMC13266999", "about": "“Designing Antibiotics with Inherent Resistance to Efflux as a Strategy to Revive Discovery against Multidrug-Resistant Pathogens” (Journal of Medicinal Chemistry, 2026)", "key": {"[1]": {"tested_on": "S. aureus", "assay": "Mutation frequency and agar MIC", "assay_type": "cell-based", "protocol": "(§1) Mutation frequencies were performed on solid media at supra-inhibitory concentrations. First, the agar MIC was performed to account for any issues in solubility of compounds in solid media. Agar plates were prepared with 2-fold dilutions of compound.\n(§2) For the mutation frequency assay, bacteria from an overnight culture were grown to mid exponential phase in liquid broth, then 100 μL was spread onto an agar plate containing compound at concentrations above the agar MIC. A Miles-Misra was also conducted on an antibiotic-free agar plate to determine the CFU/mL of the starting population. […] The mutation frequency was calculated by dividing the number of colonies on supra inhibitory con-centration plates by the starting population."}, "[2]": {"tested_on": "E. coli", "assay": "Mutation frequency and agar MIC", "assay_type": "cell-based", "protocol": "as §1, §2"}, "[3]": {"tested_on": "A. baumannii", "assay": "Mutation frequency and agar MIC", "assay_type": "cell-based", "details": "A118", "protocol": "as §1, §2"}, "[4]": {"assay": "Pharmacokinetics", "details": "male, ICR (CD-1), mouse", "protocol": "Pharmacokinetic studies were performed in male ICR (CD-1) mice obtained from Charles River, UK. […] Blood samples were collected from the caudal vein into anticoagulant-treated capillaries at predetermined time points up to 8 h, with terminal cardiac puncture at 8 h. Plasma samples were stored at −80 °C until analysis. […] A compound-specific LC-MS/MS method was developed for each test article using matrix-matched calibrators following protein precipitation of samples."}, "[5]": {"tested_on": "S. aureus", "assay": "Serial passaging, MIC of adapted strains", "assay_type": "cell-based", "details": "Staphylococcus aureus", "protocol": "MICs were performed on the first and 10th passage."}, "[6]": {"tested_on": "S. aureus", "assay": "MIC (microbroth dilution)", "assay_type": "cell-based, Staphylococcus aureus", "summary_of_the_method": "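Broth microdilution MICs, defined as lowest compound level without visible growth (OD600 read), on bacteria grown overnight to stationary phase then diluted. Twofold compound dilutions; some wells also received PMBN, final 30 μg/mL, to permeabilize the outer membrane.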"}}}
{"smiles": "C[C@H]1COc2c(N3CC[C@@H](Nc4ncccn4)C3)c(F)cc3c(=O)c(C(=O)O)cn1c23", "note": "[Compound 46, (S)-9-Fluoro-3-methyl-7-oxo-10-((R)-3-(pyrimidin-2-ylamino)pyrrolidin-1-yl)-2,3-dihydro-7H-[1,4]oxazino[2,3,4-ij]quinoline-6-carboxylic acid]", "values": [{"measurement": "Agar MIC", "setting": "[1]; ATCC 9144", "result": 0.008, "unit": "µg/mL"}, {"measurement": "Agar MIC", "setting": "[1]; NCTC 13616", "result": 0.5, "unit": "µg/mL"}, {"measurement": "Agar MIC", "setting": "[2]; NCTC 12241", "result": 0.03, "unit": "µg/mL"}, {"measurement": "Agar MIC", "setting": "[2]; NCTC 12923", "result": 0.12, "unit": "µg/mL"}, {"measurement": "Agar MIC", "setting": "[3]", "result": 0.03, "unit": "µg/mL"}, {"measurement": "half-life", "setting": "[4]; in vivo, po, 20 mg/kg", "result": 5.1, "unit": "h"}, {"measurement": "AUC(0-inf)", "setting": "[4]; plasma, iv, 5 mg/kg", "result": 15700, "unit": "ng·h/mL"}, {"measurement": "bioavailability", "setting": "[4]; plasma, po, 20 mg/kg", "result": 49.3, "unit": "%"}, {"measurement": "MIC", "setting": "[5]; 1199B WT", "result": 0.015, "unit": "µg/mL"}, {"measurement": "MIC", "setting": "[5]; 1199B adapted to 4 x MIC of Compound 7", "result": 0.03, "unit": "µg/mL"}, {"measurement": "MIC", "setting": "[5]; 1199B adapted to 4 x MIC of Compound 46", "result": 0.125, "unit": "µg/mL"}, {"measurement": "MIC", "setting": "[5]; 1199B adapted to 4 x MIC of Compound 50", "result": 0.25, "unit": "µg/mL"}, {"measurement": "MIC", "setting": "[5]; 1199B adapted to 4 x MIC of Compound 51", "result": 0.06, "unit": "µg/mL"}, {"measurement": "MIC", "setting": "[5]; 1199 WT", "result": 0.008, "unit": "µg/mL"}, {"measurement": "MIC", "setting": "[5]; 1199 adapted to 4 x MIC of Compound 7", "result": 0.015, "unit": "µg/mL"}, {"measurement": "MIC", "setting": "[5]; 1199 adapted to 4 x MIC of Compound 46", "result": 0.03, "unit": "µg/mL"}, {"measurement": "MIC", "setting": "[5]; 1199 adapted to 4 x MIC of Compound 50", "result": 0.125, "unit": "µg/mL"}, {"measurement": "MIC", "setting": "[5]; 1199 adapted to 4 x MIC of Compound 51", "result": 0.03, "unit": "µg/mL"}, {"measurement": "MIC", "setting": "[5]; NCTC13616, NCTC 13616 WT", "result": 0.5, "unit": "µg/mL"}, {"measurement": "MIC", "setting": "[5]; NCTC13616, NCTC 13616 adapted to 4 x MIC of Compound 7", "result": 0.5, "unit": "µg/mL"}, {"measurement": "MIC", "setting": "[5]; NCTC13616, NCTC 13616 adapted to 4 x MIC of Compound 46", "result": 0.5, "unit": "µg/mL"}, {"measurement": "MIC", "setting": "[5]; NCTC13616, NCTC 13616 adapted to 4 x MIC of Compound 50", "result": 0.5, "unit": "µg/mL"}, {"measurement": "MIC", "setting": "[5]; NCTC13616, NCTC 13616 adapted to 4 x MIC of Compound 51", "result": 2, "unit": "µg/mL"}, {"measurement": "MIC", "setting": "[6]; NCTC 13616", "result": "0.5 to 1", "unit": "µg/mL"}, {"measurement": "fold difference in MIC, SA-1199B vs SA-1199", "setting": "[6]; NorA-overexpressing vs WT", "result": 2, "unit": "fold"}, {"measurement": "MIC", "setting": "[6]; SA-1199B (NorA-overexpressing)", "result": 0.03, "unit": "µg/mL"}, {"measurement": "MIC", "setting": "[6]; Staphylococcus aureus, 1199, + 4% albumin, read-out: MIC", "result": "0.03 to 0.06", "unit": "µg/mL"}, {"measurement": "MIC", "setting": "[6]; Staphylococcus aureus, 1199b, + 4% albumin, read-out: MIC", "result": 0.06, "unit": "µg/mL"}, {"measurement": "MIC", "setting": "[6]; Staphylococcus aureus, ATCC9144, ATCC 9144, + 4% albumin, read-out: MIC", "result": "0.03 to 0.06", "unit": "µg/mL"}, {"measurement": "MIC", "setting": "[6]; Staphylococcus aureus, ATCC9144, ATCC 9144, read-out: MIC", "result": "≤ 0.03", "unit": "µg/mL"}, {"measurement": "MIC", "setting": "[6]; Staphylococcus aureus, NCTC13277, NCTC 13277, + 4% albumin, read-out: MIC", "result": "1 to 2", "unit": "µg/mL"}, {"measurement": "MIC", "setting": "[6]; Staphylococcus aureus, NCTC13277, NCTC 13277, read-out: MIC", "result": 1, "unit": "µg/mL"}, {"measurement": "MIC", "setting": "[6]; Staphylococcus aureus, NCTC13616, NCTC 13616, + 4% albumin, read-out: MIC", "result": "1 to 2", "unit": "µg/mL"}, {"measurement": "MIC", "setting": "[6]; Staphylococcus aureus, NCTC13616, NCTC 13616, read-out: MIC", "result": 0.5, "unit": "µg/mL"}, {"measurement": "MIC", "setting": "[6]; Staphylococcus aureus, SA-1199B (NorA-overexpressing)", "result": 0.016, "unit": "µg/mL"}, {"measurement": "fold potentiation compared to levofloxacin", "setting": "[6]; fluoroquinolone-resistant NCTC 13616 and NCTC 13277", "result": "16–32 fold"}]}
